Measured values from patent publication US11696913B2, “Prolonged ectoparasite-controlling agent for animal” (MITSUI CHEMICALS AGRO, INC., priority 2017, dated 2023).

Columns and labels:
Ctenocephalides felis [1] = test: Ctenocephalides felis in-vitro feeding test with fleas (CTECFE oral); conditions: 48 hours, read-out: insecticidal feeding activity; for pest or weed control at 0.16 ppm: dose 0.16 ppm in citrated cattle blood; for pest or weed control at 0.8 ppm: dose 0.8 ppm in citrated cattle blood; for pest or weed control at 4 ppm: dose 4 ppm in citrated cattle blood; for pest or weed control at 0.032 ppm: dose 0.032 ppm in citrated cattle blood
How it was run: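 Scored as percent fleas killed (0–100%) 48 hours after feeding began. Compound, dissolved in DMSO and diluted into citrated cattle blood, was offered via a parafilm membrane to roughly 20 adult male and female C. felis at about 37° C.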

Ixodes ricinus = test: In vitro contact test with adult hard ticks (Ixodes ricinus); conditions: read-out: acaricidal activity; for pest or weed control at 5 µg/cm2, 5 µg/cm2: dose 5 μg/cm^2, 48 h; for pest or weed control at 0.2 µg/cm2, 0.2 µg/cm2: dose 0.2 μg/cm^2, 48 h; for pest or weed control at 1 µg/cm2, 1 µg/cm2: dose 1 μg/cm^2, 48 h
How it was run: (§1)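 Acaricidal activity = % ticks dead or moribund after 48 h contact with acetone-deposited compound on vial walls (e.g., 900 ppm solution → 5 μg/cm^2). Ambient conditions for R. sanguineus, 21° C./85% rel. hum. for other species; heat challenge at 45-50° C. separated climbers from moribund ticks.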

Rhipicephalus sanguineus = test: In vitro contact test with adult hard ticks (Rhipicephalus sanguineus); conditions: read-out: acaricidal activity; for pest or weed control at 0.04 µg/cm2, 0.04 µg/cm2: dose 0.04 μg/cm^2, 48 h; for pest or weed control at 0.2 µg/cm2, 0.2 µg/cm2: dose 0.2 μg/cm^2, 48 h; for pest or weed control at 1 µg/cm2, 1 µg/cm2: dose 1 μg/cm^2, 48 h
How it was run: as §1

Laodelphax striatellus = test: Insecticidal testing against small brown planthopper; type: in vivo; conditions: 144 h, concentration 100 ppm, sprayed rice seedlings, after 6 days, read-out: pesticidal rate
How it was run: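 Acetone solution of compound at a set concentration sprayed onto rice seedlings, air-dried, then exposed to 10 planthoppers (one group). Held at 25° C; survival rate recorded after 6 days.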

Spodoptera litura = test: Insecticidal testing against common cutworm; type: in vivo; conditions: foliar, 144 h, concentration 100 ppm, cabbage leaf dip, second-stage larvae, after 6 days, read-out: pesticidal rate
Text: Insecticidal Testing Against Common Cutworm (Spodoptera litura)

Plutella xylostella = test: Insecticidal testing against diamondback moth; type: in vivo; conditions: foliar, 144 h, concentration 100 ppm, cabbage leaf dip, third-stage larvae, after 6 days, read-out: pesticidal rate
Text: Insecticidal Testing Against Diamondback Moth (Plutella xylostella)

Amblyomma americanum = test: In vitro contact test with hard ticks (Amblyomma americanum nymphs); conditions: read-out: acaricidal activity; for pest or weed control at 0.2 µg/cm2, 0.2 µg/cm2: dose 0.2 μg/cm^2, 48 h; for pest or weed control at 1 µg/cm2, 1 µg/cm2: dose 1 μg/cm^2, 48 h; for pest or weed control at 0.04 µg/cm2, 0.04 µg/cm2: dose 0.04 μg/cm^2, 48 h
How it was run: as §1

[2] = test system: Rhipicephalus (Boophilus) microplus; test: In vitro injection test with Rhipicephalus (Boophilus) microplus (BOOPMI Inj); conditions: 168 h, laid fertile eggs after 7 days, read-out: acaricidal activity; for pest or weed control at 6.4 ng: dose 0.0064 μg/animal injected; for pest or weed control at 32 ng: dose 0.032 μg/animal injected; for pest or weed control at 0.00016 mg: dose 0.16 μg/animal injected; for pest or weed control at 0.0008 mg: dose 0.8 μg/animal injected
How it was run: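 Five engorged adult females each get a 1 μl abdominal injection of compound dissolved and diluted in DMSO. Kept 7 days at 28° C./85% rel. hum.; percent activity rates egg laying and egg fertility (0% all fertile, 100% none laid or infertile).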

Dermacentor variabilis = test: In vitro contact test with adult hard ticks (Dermacentor variabilis); conditions: read-out: acaricidal activity; for pest or weed control at 0.04 µg/cm2, 0.04 µg/cm2: dose 0.04 μg/cm^2, 48 h; for pest or weed control at 0.2 µg/cm2, 0.2 µg/cm2: dose 0.2 μg/cm^2, 48 h; for pest or weed control at 1 µg/cm2, 1 µg/cm2: dose 1 μg/cm^2, 48 h
How it was run: as §1

Ctenocephalides felis [3] = test: In vitro contact test with fleas; conditions: read-out: insecticidal activity; for pest or weed control at 0.04 µg/cm2, 0.04 µg/cm2: dose 0.04 μg/cm^2, dead or moribund fleas after 48 h; for pest or weed control at 0.2 µg/cm2, 0.2 µg/cm2: dose 0.2 μg/cm^2, dead or moribund fleas after 48 h; for pest or weed control at 1 µg/cm2, 1 µg/cm2: dose 1 μg/cm^2, dead or moribund fleas after 48 h
How it was run: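 Activity is the percentage of fleas dead or moribund at 48 h, judged by immobility or uncoordinated movement after tapping. Tubes were coated by evaporating acetone solutions (900 ppm gives 5 μg/cm^2), then held 5-10 adult fleas of both sexes at room temperature and ambient humidity.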

Row | Compound | pest or weed control at 0.16 ppm (Ctenocephalides felis [1]) | pest or weed control at 0.8 ppm (Ctenocephalides felis [1]) | pest or weed control at 4 ppm (Ctenocephalides felis [1]) | pest or weed control at 5 µg/cm2, 5 µg/cm2 (Ixodes ricinus) | pest or weed control at 0.2 µg/cm2, 0.2 µg/cm2 (Rhipicephalus sanguineus) | pest or weed control at 1 µg/cm2, 1 µg/cm2 (Rhipicephalus sanguineus) | pest or weed control at 100 ppm (Laodelphax striatellus) | pest or weed control at 100 ppm (Spodoptera litura) | pest or weed control at 100 ppm (Plutella xylostella) | pest or weed control at 0.2 µg/cm2, 0.2 µg/cm2 (Amblyomma americanum) | pest or weed control at 1 µg/cm2, 1 µg/cm2 (Amblyomma americanum) | pest or weed control at 32 ng [2] | pest or weed control at 0.00016 mg [2] | pest or weed control at 0.0008 mg [2] | pest or weed control at 0.04 µg/cm2, 0.04 µg/cm2 (Dermacentor variabilis) | pest or weed control at 0.2 µg/cm2, 0.2 µg/cm2 (Dermacentor variabilis) | pest or weed control at 1 µg/cm2, 1 µg/cm2 (Dermacentor variabilis) | pest or weed control at 0.04 µg/cm2, 0.04 µg/cm2 (Ctenocephalides felis [3]) | pest or weed control at 0.2 µg/cm2, 0.2 µg/cm2 (Ctenocephalides felis [3]) | pest or weed control at 1 µg/cm2, 1 µg/cm2 (Ctenocephalides felis [3]) | also measured
1 | O=C(Nc1cccc(C(=O)Nc2c(I)cc(C(F)(C(F)(F)F)C(F)(F)C(F)(F)F)cc2C(F)(F)F)c1F)c1ccc(F)nc1 (stereo not shown) [Compound 82] | 95% | 95% | 95% | 90% | 90% | 90% | ≥ 70% | ≥ 70% | ≥ 70% | 90% | 90% | 100% | 100% | 100% | 90% | 90% | 90% | 95% | 95% | 95% | pest or weed control at 0.04 µg/cm2, 0.04 µg/cm2 (Rhipicephalus sanguineus): 90%; pest or weed control at 6.4 ng [2]: 100%
2 | O=C(Nc1cccc(C(=O)Nc2c(I)cc(C(F)(C(F)(F)F)C(F)(F)F)cc2C(F)(F)F)c1F)c1ccc(C(F)F)nc1 [Compound 85] | 95% | 95% | 95% | 90% | 90% | 90% | ≥ 70% | ≥ 70% | ≥ 70% | 90% | 90% | 100% | 100% | 100% | 90% | 90% | 90% | 95% | 95% | 95% | pest or weed control at 0.0064 ppm (Ctenocephalides felis [1]; dose 0.0064 ppm in citrated cattle blood): 95%; pest or weed control at 0.032 ppm (Ctenocephalides felis [1]): 95%; pest or weed control at 0.2 µg/cm2, 0.2 µg/cm2 (Ixodes ricinus): 90%; pest or weed control at 1 µg/cm2, 1 µg/cm2 (Ixodes ricinus): 90%
3 | O=C(Nc1cccc(C(=O)Nc2c(I)cc(C(F)(C(F)(F)F)C(F)(F)F)cc2C(F)(F)F)c1F)c1ccc(F)c(F)c1 [Compound 86] | 95% | 95% | 95% | 90% | 90% | 90% | ≥ 70% | ≥ 70% | ≥ 70% | 90% | 90% | 100% | 100% | 100% | 90% | 90% | 90% | 95% | 95% | 95% | pest or weed control at 0.032 ppm (Ctenocephalides felis [1]): 95%; pest or weed control at 0.2 µg/cm2, 0.2 µg/cm2 (Ixodes ricinus): 90%; pest or weed control at 1 µg/cm2, 1 µg/cm2 (Ixodes ricinus): 90%; pest or weed control at 0.04 µg/cm2, 0.04 µg/cm2 (Rhipicephalus sanguineus): 90%; pest or weed control at 0.04 µg/cm2, 0.04 µg/cm2 (Amblyomma americanum): 90%
4 | CN(C(=O)c1ccc(F)cc1)c1cccc(C(=O)Nc2c(Br)cc(C(F)(C(F)(F)F)C(F)(F)F)cc2OC(F)F)c1F [Compound 89] | 95% | 95% | 95% | 90% | 90% | 90% | ≥ 70% | ≥ 70% | ≥ 70% |  | 90% | 100% | 100% | 100% |  | 90% | 90% | 95% | 95% | 95% | pest or weed control at 0.032 ppm (Ctenocephalides felis [1]): 95%; pest or weed control at 0.2 µg/cm2, 0.2 µg/cm2 (Ixodes ricinus): 90%; pest or weed control at 1 µg/cm2, 1 µg/cm2 (Ixodes ricinus): 90%; pest or weed control at 6.4 ng [2]: 100%
5 | O=C(Nc1cccc(C(=O)Nc2c(Br)cc(C(F)(C(F)(F)F)C(F)(F)F)cc2OC(F)F)c1F)c1ccc(F)cc1 [Compound 91] | 95% | 95% | 95% | 90% | 90% | 90% | ≥ 70% | ≥ 70% | ≥ 70% | 90% | 90% | 100% | 100% | 100% | 90% | 90% | 90% | 95% | 95% | 95% | pest or weed control at 0.032 ppm (Ctenocephalides felis [1]): 95%; pest or weed control at 0.2 µg/cm2, 0.2 µg/cm2 (Ixodes ricinus): 90%; pest or weed control at 1 µg/cm2, 1 µg/cm2 (Ixodes ricinus): 90%; pest or weed control at 0.04 µg/cm2, 0.04 µg/cm2 (Rhipicephalus sanguineus): 90%; pest or weed control at 0.04 µg/cm2, 0.04 µg/cm2 (Amblyomma americanum): 90%
